Results from patent publication US7160914B2, “Compounds that exhibit specific molecular recognition of mixed nucleic acid sequences and bind in the DNA minor groove as a dimer” (The University of North Carolina at Chapel Hill, priority 1999, dated 2007).

Columns and labels:
[1] = system: 265 bp EcoRI-PvuII restriction fragment from plasmid pBS; test: Quantitative DNase I footprinting; type: binding; details: for footprint in the 90–100 base region (GC-rich): 265 mer pBS fragment, DNase I; for binding to sites containing GC base pairs, such as ATGA, ACGA, and ATGT: several restriction fragments
Protocol: In order to characterize the DNA recognition properties of a series of analogs of furamidine (shown in FIG. 1), quantitative DNAaseI footprinting studies were conducted using of a number of derivatives with several different DNA sequences. Plasmid DNA restriction fragments were prepared and DNaseI footprinting experiments were conducted as described in C. Bailly, et al., Biochemistry 35, 1150 (1996) and C. Bailly et al., Anti Cancer Drug Design (in press, 1999).
FIG. 2. illustrates the results of a quantitative DNase I footprinting titration experiment with the compound DB293 on a 265 bp DNA fragment as described herein. The EcoRI-PvuII restriction fragment from plasmid pBS was 3′-end labeled at the EcoRI site with [α-^32P]dATP in the presence of AMV reverse transcriptase. […] Drug concentrations are (lanes 1–11) 0, 0.3, 0.6, 0.9, 1.2, 1.5, 1.8, 2.1, 2.4, 2.7, 3.0 μM for DB 293 and (lanes 12–15) 0, 1, 2 and 5 μM for DB270. Tracks labeled ‘G’ represent dimethylsulphate-piperidine markers specific for guanines. The track labeled DNA contained no drug and no enzyme. Numbers at the right side of the gel refer to the numbering scheme of the fragment. The rectangles on the left side refer to the positions of (open box) an AT-rich and (filled box) a GC-rich binding site for DB293. FIG. 2B is a graphical illustration of footprinting plots for the binding of DB293 to (open circles) the AT site 5′-AATTAA and (filled squares) the GC-rich site 5′-ACCATG. The relative band intensity R corresponds to the ratio Ic/Io where Ic is the intensity of the band at the ligand concentration c and Io is the intensity of the same band in the absence of DB293. The differential cleavage plots shown in FIG. 2C compare the susceptibility of the DNA to cutting by DNase I in the presence of (filled circles) 5 μM DB270 or (open squares) 1.5 μM DB293. Deviation of points towards the lettered sequence (negative values) corresponds to a ligand-protected site and deviation away (positive values) represents enhanced cleavage. The vertical scale is in units of ln(fa)–l(fc), where fa is the fractional cleavage at any bond in the presence of the drug and fc is the fractional cleavage of the same bond in the control. […] The rectangles below the sequence show the positions of (open box) the AT binding site and (filled box) the GC-rich site.

[2] = system: hairpin duplex oligo2 (93–104 base sequence region of the 265 mer pBS restriction fragment); test: Thermal melting (Tm) of hairpin oligo2; type: binding; details: oligo2 on titration with compound; 0.01 M MES, 0.001M EDTA
Protocol: In order to investigate the complexes of these compounds in more detail with GC rich sequences, a hairpin duplex model containing the 93–104 base sequence region from the 265 mer pBS restriction fragment was synthesized and is illustrated as oligo2 in FIG. 1. Oligo1 (also shown in FIG. 1) with the AATT sequence that has been used in the analysis of a large number of minor-groove agents provides a reference.
Thermal melting experiments were conducted with a Cary 4 spectrophotometer interfaced to a microcomputer. A thermistor fixed into a reference cuvette was used to monitor the temperature. The oligomers were added to 1 mL of buffer (0.01 M MES and 0.001M EDTA) in 1 cm path length reduced volume quartz cells, and the concentration was determined by measuring the absorbance at 260 nm. Experiments were generally conducted at a concentration of 2×10^−6 M for hairpin oligo2, and 3×10^−6 M for hairpin oligo2-1. Tm experiments for the complexes were conducted as a function of ratio.

oligo2-1 hairpin duplex = system: oligo2-1 hairpin duplex
Protocol: (§1) To pursue the comparative quantitative analysis of these compounds with DNA in more detail by using surface plasmon resonance, 5′-biotin labeled analogs of oligo2-1 and 2-2 were immobilized on a BIAcore four-channel streptavidine-coated sensor chip as follows: Immobilization of DNA and surface plasmon resonance (SPR) binding studies: 5′-biotin labeled hairpins were purchased with HPLC purification (Midland Co). […] Steady state analysis was performed with multiple injections f different concentrations of each compound over the SA surface at a flow rate of 20 μl/min, at 25° C.
(§2) Oligo1 was immobilized as a control sequence and one flow cell was left as an unmodified reference. […] The free compound is fixed by the concentration in the flow solution.

oligo2-2 hairpin duplex = details: SPR, two site model
Protocol: as §1, §2

hairpin duplex oligo2-1 = test: Thermal melting (Tm) of hairpin oligo2-1; type: binding; details: 1:1 and 2:1 ratios, single transitions

SMILES	footprint in the 90–100 base region (GC-rich) [1]	C50 (drug concentration required for half-maximal footprinting) at the ATGA site versus the neighboring ATTA site ([1]; ATGA site compared with ATTA site)	binding to sites containing GC base pairs, such as ATGA, ACGA, and ATGT [1]	increase in Tm [2]	K2 relative to K1 (times larger) (oligo2-1 hairpin duplex; also relative to binding of DB270)	macroscopic binding constant K1 (initial binding) (oligo2-1 hairpin duplex; oligo2-1, two site model)	macroscopic binding constant K2 (second site after the first site is filled) (oligo2-1 hairpin duplex; oligo2-1, two site model)	binding to oligo2-2 compared with oligo2-1 (oligo2-2 hairpin duplex)	melting temperatures of complexes with oligo2-1 (hairpin duplex oligo2-1)	binding to oligo2-1 relative to binding to oligo1 (oligo2-1 hairpin duplex; SPR)
N=C(N)c1ccc(-c2ccc(-c3nc4ccc(C(=N)N)cc4[nH]3)o2)cc1 [DB293]	very strong footprint	significantly lower	strongly binds	≤ 30 °C	over 25 times	2.8×10^6	7.3×10^7	Very similar results		
N=C(N)c1ccc2nc(-c3ccc(-c4nc5ccc(C(=N)N)cc5[nH]4)o3)[nH]c2c1 [DB270, reference compound]	negligible footprints		not and do not bind strongly or footprint						below the DB293 value	at least a factor of ten weaker
